From patent US4518581A, “Imparting low- or anti-cariogenic property to orally-usable products” (Kabushiki Kaisha Hayashibara Seibutsu Kagaku Kenkyujo, priority 1981, dated 1985)

What was measured:
[1] = test system: Streptococcus mutans 6715 strain; assay: Organic acid formation from saccharides by Streptococcus mutans cells, pH-measurement (Experiment 4); format: cell-based; conditions: 37° C., 30 minutes; for pH-Level of the reaction mixture (organic acid formation): cell suspension, Stephan's buffer (pH 7.0), saccharide solution
Experimental: Organic acid formation from some saccharides by Streptococcus mutans was tested: Streptococcus mutans 6715 strain was cultivaed similarly as in EXPERIMENT 1, and the cells, obtained by centrifuging the culture, were washed with 0.9 w/v % sodium chloride solution, followed by additional centrifugation. Two ml of a mixture solution, consisting of 0.2 ml of the cell suspension, prepared from about 100 ml of the culture, 1.5 ml of Stephan's buffer, and 0.3 ml aqueous solution of each saccharide as listed in TABLE II, was incubated at 37° C. for 30 minutes, followed by pH-measurement of the reaction mixture. The Stephan's buffer was prepared by the method as reported by R. M. Stephan et al., Journal of Dental Research, Vol.26, pp.15-41 (1947): One ml of Solution I, prepared by dissolving 17.89 g Na2 HPO4. 12H2 O, 7.92 g KOH and 6.81 g KH2 PO4 in water to give a final volume of 100 ml, was placed in a 100-ml volumetric flask, and mixed with about 90 ml of water. To the flask was added 1 ml of Solution II, prepared by dissolving 4.54 g KH2 PO4, 0.32 g MgSO4.7H2 O, 0.57 g CaSO4.2H2 O and 10 ml of 3.5% hydrochloric acid solution in water to give a final volume of 100 ml. This mixture was diluted with additional water to obtain 100 ml of Stephan's buffer (pH 7.0).
The results are given in TABLE II, wherein the organic acid formation from the saccharides can be estimated by the pH-values.

[2] = target: T1, water-insoluble glucan producing enzyme (Streptococcus downei, UniProt P27470); assay: Effect of saccharides on formation of water-insoluble glucan from sucrose (Experiment 3); format: biochemical, Streptococcus mutans 6715 strain; conditions: 1 ml 4 w/v % sucrose plus 1 ml 4 w/v % saccharide, 0.02 units enzyme, 37° C., 16 hours; for A: amounts of water-insoluble glucan formed: sucrose control 300
T1 construct: endogenous in cells; host or cells: Streptococcus mutans 6715 strain (today S. sobrinus), culture supernatant, ammonium sulfate precipitate, dialyzed
T1 sequence (P27470 39-1592): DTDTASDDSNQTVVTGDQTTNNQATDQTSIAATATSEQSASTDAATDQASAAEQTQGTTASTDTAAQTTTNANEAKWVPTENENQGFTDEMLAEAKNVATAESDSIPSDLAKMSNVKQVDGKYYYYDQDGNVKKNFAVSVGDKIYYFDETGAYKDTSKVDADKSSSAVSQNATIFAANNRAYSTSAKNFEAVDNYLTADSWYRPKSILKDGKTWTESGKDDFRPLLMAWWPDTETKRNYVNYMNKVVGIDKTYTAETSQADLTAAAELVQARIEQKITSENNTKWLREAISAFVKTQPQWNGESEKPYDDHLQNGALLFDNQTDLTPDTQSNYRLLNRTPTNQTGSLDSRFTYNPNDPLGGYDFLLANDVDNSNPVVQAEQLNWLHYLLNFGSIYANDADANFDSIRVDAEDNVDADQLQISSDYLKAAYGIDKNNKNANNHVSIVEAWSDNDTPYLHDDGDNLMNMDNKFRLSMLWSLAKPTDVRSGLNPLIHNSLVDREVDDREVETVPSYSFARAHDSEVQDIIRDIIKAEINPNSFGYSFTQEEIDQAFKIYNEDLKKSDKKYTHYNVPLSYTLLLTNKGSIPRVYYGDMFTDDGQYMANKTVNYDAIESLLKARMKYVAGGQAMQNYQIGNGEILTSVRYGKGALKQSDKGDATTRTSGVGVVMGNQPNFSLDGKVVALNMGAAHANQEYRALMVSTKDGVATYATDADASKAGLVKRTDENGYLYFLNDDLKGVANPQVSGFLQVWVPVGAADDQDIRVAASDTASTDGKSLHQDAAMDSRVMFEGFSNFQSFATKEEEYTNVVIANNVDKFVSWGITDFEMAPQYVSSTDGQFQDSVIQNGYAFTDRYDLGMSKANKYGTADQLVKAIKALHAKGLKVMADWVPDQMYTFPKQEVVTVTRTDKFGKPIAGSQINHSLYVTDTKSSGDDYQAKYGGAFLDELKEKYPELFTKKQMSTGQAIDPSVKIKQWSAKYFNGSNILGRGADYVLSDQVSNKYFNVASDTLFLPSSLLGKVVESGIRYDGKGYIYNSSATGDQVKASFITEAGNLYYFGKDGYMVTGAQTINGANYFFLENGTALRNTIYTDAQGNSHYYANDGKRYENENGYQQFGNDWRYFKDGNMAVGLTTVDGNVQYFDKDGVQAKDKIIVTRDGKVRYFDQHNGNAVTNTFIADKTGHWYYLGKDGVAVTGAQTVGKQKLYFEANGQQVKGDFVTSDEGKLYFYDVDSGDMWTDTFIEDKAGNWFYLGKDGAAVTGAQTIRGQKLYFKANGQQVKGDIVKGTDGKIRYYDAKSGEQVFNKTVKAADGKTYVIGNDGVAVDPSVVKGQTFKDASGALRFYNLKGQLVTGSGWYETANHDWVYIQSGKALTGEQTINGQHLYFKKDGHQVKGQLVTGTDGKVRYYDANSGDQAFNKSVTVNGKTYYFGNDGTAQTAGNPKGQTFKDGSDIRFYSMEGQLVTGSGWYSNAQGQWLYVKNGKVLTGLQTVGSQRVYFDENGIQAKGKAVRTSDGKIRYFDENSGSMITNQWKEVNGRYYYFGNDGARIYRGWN
Experimental: After completion of the cultivation, the culture was separated into cell precipitant and supernatant. Thereafter, to the supernatant was added with ammonium sulfate to give 60% saturation, and the resultant precipitant was dialyzed against 0.1M phosphate buffer (pH 7.2) to obtain an aqueous solution containing the enzyme.
The titers of the enzyme were assayed as follows: A mixture solution, consisting of 1 ml of 0.2M aqueous sucrose solution, 1 ml of water, 1 ml of 0.1M phosphate buffer containing 0.05 w/v % NaN3, and 0.5 ml of the enzyme solution (below 0.05 units), is incubated at 37° C. for 9 hours, followed by centrifugation of the reaction mixture. The resultant precipitant is mixed with 4 ml of 0.5N sodium hydroxide solution, and then incubated at this temperature for an additional one hour to dissolve the precipitant. The amount of water-insoluble glucan formed during the enzymatic reaction is then measured. One unit of the enzyme is defined as the amount of enzyme that transfers 1 μmole glucose from sucrose to the water-insoluble glucan in one minute.
Effects of some saccharides on the formation of water-insoluble glucan were tested: Water-insoluble glucan formation and inhibition thereof were determined according to the enzyme assay method as described in EXPERIMENT 1, except that the mixture solution contained sucrose, or sucrose and each saccharide as listed in TABLE I. The experiment was carried out as follows: A mixture solution, consisting of 1 ml of 4 w/v % aqueous sucrose solution, 1 ml of 4 w/v % aqueous solution of each saccharide as listed in TABLE I, 1.5 ml of 0.1M phosphate buffer containing 0.05 w/v % NaN3, and 0.5 ml of the enzyme solution (0.02 units), was incubated at 37° C. for 16 hours, and the water-insoluble glucan formation in the reaction mixture was determined according to the enzyme assy method.
In a control experiment, 1 ml of the above described saccharide solution was replaced with the same amount of water.
The inhibition degree was calculated with following equation:
Inhibition degree (%)=100-A/B×100
where A and B are respective amounts of the water-insoluble glucan formed (μg/ml) when the mixture solution contained sucrose or sucrose and each of the saccharides.

| Molecule | pH-Level of the reaction mixture (organic acid formation) [1] | B: inhibition degree on water-insoluble glucan formation [2] | A: amounts of water-insoluble glucan formed [2] | organic acid formation from the saccharide ([1]; Streptococcus mutans 6715 cells) |
| --- | --- | --- | --- | --- |
| O=C(CO)[C@@H](O)[C@H](O[C@H]1O[C@H](CO)[C@@H](O)[C@H](O)[C@H]1O)[C@H](O)CO [Maltulose] | 7.0 | 40% | 180 µg/mL |  |
| CO[C@H]1O[C@H](CO)[C@@H](O)[C@H](O)[C@H]1O [Methyl-α-D-Glucose] | 7.0 | 14% |  |  |
| OC[C@H](O)[C@@H](O)[C@H](O)[C@H](O)CO[C@H]1O[C@H](CO)[C@@H](O[C@H]2O[C@H](CO)[C@@H](O)[C@H](O)[C@H]2O)[C@H](O)[C@H]1O [Isopannitol] | 7.0 | 10% | 270 µg/mL |  |
| OC[C@@H](O)[C@@H](O[C@H]1O[C@H](CO)[C@@H](O[C@H]2O[C@H](CO[C@H]3O[C@H](CO)[C@@H](O)[C@H](O)[C@H]3O)[C@@H](O)[C@H](O)[C@H]2O)[C@H](O)[C@H]1O)[C@H](O)[C@@H](O)CO [Isomaltosyl maltitol, 4^2 -O-α--isomaltosyl maltitol] | 7.0 |  | 48 µg/mL | no organic acid formation |
| OC1OC[C@H](O)[C@H](O)[C@H]1O (stereo partly drawn) [L-Arabinose] | 7.0 | 2% | 294 µg/mL |  |
| CC(=O)N[C@H]1C(O)O[C@H](CO)[C@@H](O)[C@@H]1O (stereo partly drawn) [N--Acetyl glucosamine] | 7.0 | 5% | 285 µg/mL |  |
| OC[C@H]1O[C@@H](OC[C@H]2OC(O)[C@H](O)[C@@H](O)[C@@H]2O)[C@H](O)[C@@H](O)[C@@H]1O (stereo partly drawn) [Gentiobiose] | 7.0 |  | 300 µg/mL |  |
| OC[C@H]1O[C@@H](O[C@@H]2[C@@H](CO)OC(O)(CO)[C@H]2O)[C@H](O)[C@@H](O)[C@H]1O (mixture of isomers) [Lactulose] | 7.0 | 12% | 264 µg/mL |  |
| OC[C@H]1O[C@H](O[C@H]2[C@H](O)[C@@H](O)[C@@H](O[C@H]3[C@H](O)[C@@H](O)C(O)O[C@@H]3CO)O[C@@H]2CO)[C@H](O)[C@@H](O)[C@@H]1O (stereo partly drawn) [Maltotriose] | 5.0 | 29% | 213 µg/mL |  |
| Inulobiose | 4.5 | 8% | 276 µg/mL |  |
| OC[C@@H](O)[C@@H](O)[C@H](O)[C@@H](O)CO [Sorbitol] | 7.0 | 8% | 290 µg/mL |  |
| OC[C@@H](O)[C@@H](O[C@H]1O[C@H](CO)[C@@H](O[C@H]2O[C@H](CO)[C@@H](O[C@H]3O[C@H](CO)[C@@H](O[C@H]4O[C@H](CO)[C@@H](O)[C@H](O)[C@H]4O)[C@H](O)[C@H]3O)[C@H](O)[C@H]2O)[C@H](O)[C@H]1O)[C@H](O)[C@@H](O)CO [Maltopentaitol] | 7.0 | 12% | 265 µg/mL |  |
| C[C@@H]1OC(O)[C@H](O)[C@H](O)[C@H]1O (stereo partly drawn) [Rhamnose, L-Rhamnose] | 7.0 | 0% | 300 µg/mL |  |
| OC[C@@H](O)[C@H](O)[C@@H](O)CO [Xylitol] | 7.0 | 7% | 280 µg/mL |  |
| OC[C@H]1O[C@H](O[C@H]2O[C@H](CO)[C@@H](O)[C@H](O)[C@H]2O)[C@H](O)[C@@H](O)[C@@H]1O [Trehalose] | 7.0 | 1% | 297 µg/mL |  |
| OC[C@H]1O[C@H](OC[C@H]2OC(O)[C@H](O)[C@@H](O)[C@@H]2O)[C@H](O)[C@@H](O)[C@H]1O (stereo partly drawn) [Melibiose] | 7.0 |  | 300 µg/mL |  |
| OC[C@H]1O[C@H](O[C@H]2[C@H](O)[C@@H](O)[C@@H](O[C@H]3[C@H](O)[C@@H](O)[C@@H](O[C@H]4[C@H](O)[C@@H](O)[C@@H](O[C@H]5[C@H](O)[C@@H](O)C(O)O[C@@H]5CO)O[C@@H]4CO)O[C@@H]3CO)O[C@@H]2CO)[C@H](O)[C@@H](O)[C@@H]1O (stereo partly drawn) [Maltopentaose] | 5.6 | 12% | 264 µg/mL |  |
| OC[C@H]1O[C@H](O[C@H]2[C@H](O)[C@@H](O)[C@@H](O[C@H]3[C@H](O)[C@@H](O)[C@@H](O[C@H]4[C@H](O)[C@@H](O)C(O)O[C@@H]4CO)O[C@@H]3CO)O[C@@H]2CO)[C@H](O)[C@@H](O)[C@@H]1O (stereo partly drawn) [Maltotetraose] | 5.3 | 15% | 255 µg/mL |  |
| O=C(CO)[C@@H](O)[C@H](O)[C@@H](O)CO [L-Sorbose] | 7.0 | 13% | 261 µg/mL |  |
| O=C(CO)[C@@H](O[C@H]1O[C@H](CO)[C@@H](O)[C@H](O)[C@H]1O)[C@H](O)[C@H](O)CO [Turanose] | 7.0 | 9% | 273 µg/mL |  |
| OC[C@H]1O[C@H](O[C@H]2[C@H](O)[C@@H](O)[C@@H](OC[C@H]3OC(O)[C@H](O)[C@@H](O)[C@@H]3O)O[C@@H]2CO)[C@H](O)[C@@H](O)[C@@H]1O (stereo partly drawn) [Isopanose] | 7.0 | 4% | 282 µg/mL |  |
| OC[C@H]1O[C@@](CO)(OC[C@H]2O[C@@](CO)(O[C@H]3O[C@H](CO)[C@@H](O)[C@H](O)[C@H]3O)[C@@H](O)[C@@H]2O)[C@@H](O)[C@@H]1O [6-Kestose] | 6.8 | 3% | 291 µg/mL |  |
| OC[C@@H](O)[C@@H](O[C@H]1O[C@H](CO)[C@@H](O[C@H]2O[C@H](CO)[C@@H](O)[C@H](O)[C@H]2O)[C@H](O)[C@H]1O)[C@H](O)[C@@H](O)CO [Maltotriitol] | 7.0 | 13% | 262 µg/mL |  |
| OC[C@H](O)[C@@H](O)[C@H](O)[C@H](O)CO[C@H]1O[C@H](CO)[C@@H](O)[C@H](O)[C@H]1O [Isomaltitol] | 7.0 | 10% | 270 µg/mL |  |
| OC[C@H]1OC(O)C[C@@H](O)[C@@H]1O (stereo partly drawn) [2-Deoxy Glucose] | 7.0 | 5% | 285 µg/mL |  |
